Laboratory results published in patent US20230331781A1, “PAR4 DERIVED PEPTIDES, ANALOGS AND USES THEREOF” (Yissum Research Development Company of the Hebrew …, priority 2019, published 2023).
Numbered stars: 1 amine (or outer) side, 2 acyl side, 3 side chain; on linkers, the order of the positions; unused ones are H or OH. Bridge positions count the residues as written; N and C are the ends. Square brackets hold non-standard residues; d marks the D form. Ends that are not written are not given here. GlyBU(C4) = Gly building unit (N-alpha-functionalized Gly) carrying a C4 alkyl chain (n = m = 4), bridged through a urea group; CO = O=C([*:1])[*:2]

System: RKO/hPar4 cells
Test: Xenograft tumor model, RKO/hPar4 clone inoculated subcutaneously in nude mice
Assay type: in vivo
Conditions: for tumor growth / tumor size: RKO/hPar4 in nude mice, s.c. at tumor site, 100 μM, 0.25 mg/30 gm, 3 times/week, from day of inoculation or 4 days later, 32 days
Protocol: FIG. 9A. A clone of RKO/PAR4 overexpressing cells (1×10^6) were injected subcutaneously into nude mice. PAR4 c(4-4) (100 μM; 0.25 mg/30 gm) was subcutaneously injected, at the site of the tumor either at the same day of RKO/PAR4 clone inoculation or 4 days later. The inhibitor was applied repeatedly 3 times/week for 3 weeks. Mice were weighted every 3 days and tumor size was measured. Mice were sacrificed after 32 days. […] Tumors were weighed and measured for size at the indicated time points and tumor volume was calculated05. FIG. 9C. qPCR of a representative RKO stable clone of PAR4. Error bars show s.d.; *** P<0.001. FIG. 9D. IHC of RKO/PAR4 derived tumors. Immunohistochemistry of RKO compared to small tumors in the presence of PAR4 c(4-4) inhibitor. Levels of proliferation in the large and small tumors were indicated by applying anti ki67 abs (FIG. 9Da and 9Db). For apoptosis, application of active caspase-3 Abs were applied (FIG. 9Dc and 9Dd). […] FIG. 9E. Histograms representing positive IHC in each treatment group. […] Hematoxilyn & eosin staining of large (left panel) and small (right panel) tumors distinctly indicate to the appearance of a wide basement membrane in the small tumors whereas a thinner and cell-invaded basement membrane is observed in large tumors.
We have generated stable clones overexpressing PAR4 in RKO cells, a non-aggressive colon cancer cell line (expressing wt p53), by infecting the cells with HA-hPar4 virus. This was followed by selection using Geneticin G418 resistance (500 μg/ml) to produce RKO/hPar4 clones. Clone efficiency generation was evaluated using qPCR analyses.
Male athymic nude mice aged 6-7 weeks were pre-implanted subcutaneously with the relevant cells (1×10^6 cells): either with HCT-116 or with RKO/hPar4 cells.
The inhibitor was injected at the site of the tumor at the day of inoculation. In an additional group, mice implanted with HCT-116 were administered with the inhibitor at day 4 after inoculation. The inhibitor ([…]) was applied repeatedly 3 times/week to all mice after the first administration of the inhibitor.
Mice were monitored for tumor size by external caliber measurements (length and width) on days 7, 14, 22 and for up to 32 days, if tumor burden allowed. Tumor volume (V) was calculated by V=L×W^2×0.5, where L is length and W is width. At the end of the experiment, mice were euthanized and tumors were removed, weighed and fixed in formalin for histology. All mice survived to the end of the experiment. All animal experiments were approved by the animal committee of the Hebrew University (MD-19-15924). In fact, for the xenograft tumor formation we have utilized two types of cell lines; the HCT116 cells, an aggressive colon cancer cell line, overexpressing oncogenes among of which is also PAR4, (FIGS. 10A and 10B) and clone/s overexpressing Par4, generated in RKO cell line; RKO/hPar4 cells (FIG. 9A-9C). HCT116 (1×10^6) and RKO/hPar4 (1×10^6) clone/s were inoculated subcutaneously in nude mice. The Pc(4-4) cyclic peptide was injected at the site of the tumor (100 μM; 0.25 mg/30 gram mouse), either at the time of tumor cell injection or 4 days after tumor-cell implantation. The Pc(4-4) cyclic peptide was applied repeatedly 3 times/week. The HCT116 cell inoculation generated large tumors and were terminated after 20 days, whereas the RKO/Par4 inoculation developed tumors on a slower pace and were terminated after 32 days. […] The powerful inhibition of tumor growth was seen regardless of whether the Pc(4-4) cyclic peptide was applied at the same time of tumor inoculation or applied 4 days later. This was obtained irrespective of using an aggressive colon cancer cell line or stable RKO/hPar4 clone/s, overexpressing PAR4 (FIGS. 9A and 9B).

[1] = RKO/PAR4 derived small tumors generated in the presence of the inhibitor vs large tumors

Pc(4-4): backbone cyclic analog of Formula I, m=n=4, ring size 30 atoms (S[GlyBU(C4)]EFRDK[GlyBU(C4)]; bridge 2-8 via CO; not fully specified; printed as SZ1EFRDKX3)
apoptosis in tumors (active caspase-3 IHC) [1]: induced levels of active caspase-3 | proliferation in tumors (ki67 IHC) [1]: little | apoptosis in tumors (active caspase-3 IHC) (RKO/PAR4 derived small tumors generated in the presence of the inhibitor vs large tumors, listed as PAR4 c(4-4)): high levels of active caspase-3 | difference between treatment started at the day of inoculation or 4 days after inoculation (RKO/Par4 stable clones in nude mice): no statistical difference | tumor growth / tumor size: significantly smaller tumors | tumor growth / tumor size (listed as PAR4 c(4-4)): potently inhibits | tumor growth / tumor size (listed as PAR(4-4)): markedly small tumors
